Experimental data taken from PMC9780825, “Combining mKate2-Kv1.3 Channel and Atto488-Hongotoxin for the Studies of Peptide Pore Blockers on Living Eukaryotic Cells” (Toxins, 2022).
pKd: −log10 of the molar value.

Assays:
[1] = target: Kv1.3 channel; conditions: whole-cell patch-clamp; mouse channels, L929 mouse fibroblast cells; read-out: Kd (published); cited from earlier work
Source text: Table 1 The Kap values for the complexes formed by K-ΔKv1.3 with the studied pore blockers and published data on the affinities of these blockers. | column: KTx1; ChTx; AgTx2; TEA

[2] = target: K-ΔKv1.3 (N-terminally truncated human Kv1.3 tagged with mKate2) (Homo sapiens, UniProt P22001); assay: Fluorescent competitive binding assay (FCBA), displacement of A-HgTx from K-ΔKv1.3; parameters: expressed in transfected cells; host or cells: HEK293 (transient transfection with pmKate2-KCNA3-del)
Sequence of K-ΔKv1.3 (N-terminally truncated human Kv1.3 tagged with mKate2) (P22001 53-575 limits assumed, stated change not applied): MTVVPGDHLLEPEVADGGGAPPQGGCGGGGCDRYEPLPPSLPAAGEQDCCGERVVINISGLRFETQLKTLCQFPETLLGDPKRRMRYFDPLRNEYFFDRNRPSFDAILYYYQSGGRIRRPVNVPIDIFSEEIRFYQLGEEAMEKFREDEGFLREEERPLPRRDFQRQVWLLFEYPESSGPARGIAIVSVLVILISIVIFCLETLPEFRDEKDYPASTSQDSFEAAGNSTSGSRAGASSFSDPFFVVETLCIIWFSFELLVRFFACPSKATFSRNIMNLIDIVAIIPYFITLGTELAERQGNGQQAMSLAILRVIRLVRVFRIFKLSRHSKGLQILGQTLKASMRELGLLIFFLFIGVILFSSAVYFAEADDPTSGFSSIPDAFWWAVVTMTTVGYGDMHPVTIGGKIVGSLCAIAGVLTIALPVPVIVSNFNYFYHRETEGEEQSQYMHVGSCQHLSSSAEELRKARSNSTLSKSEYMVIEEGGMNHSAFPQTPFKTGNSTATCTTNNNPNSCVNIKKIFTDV
Source text: To quantitatively characterize formation of complexes between A-HgTx and K-ΔKv1.3 on cell membranes, the confocal images of A-HgTx bound at the membrane of the K-ΔKv1.3 presenting cells were subjected to the treatment procedure as follows. Regions of interest (ROIs) corresponding to the plasma membranes stained with K-ΔKv1.3 were selected. Using a set of these ROIs and a threshold procedure (to null a background signal from pixels without K-ΔKv1.3 signal), the binary (0;1) mask that describes membranous localization of K-ΔKv1.3 was created. The images of K-ΔKv1.3 and A-HgTx distribution were multiplied by the corresponding mask. Next, average intensities of fluorescence of K-ΔKv1.3 (Ici) and A-HgTx (Ili) were calculated for each ROI (i.e., for each i-cell), and a ratio Ri was calculated as follows. Ri = (Ili − Ilb)/(Ici − Icb) (1) where Ilb and Icb are intensities of background signals in the fluorescent images of A-HgTx and Kv1.3 channels, respectively. Calculating Ri (i.e., normalizing A-HgTx intensity to that of K-ΔKv1.3), a correction was introduced for variations in a level of K-ΔKv1.3 expression on the membrane of particular cells. Ri values of 15–20 cells were averaged to obtain the Rav value, and a standard deviation was calculated.
Concentration of A-HgTx was 2 nM. Concentration of pore blockers C varied as indicated in the graph.
When Kd of A-HgTx and IC50 for the studied compound are known, the apparent dissociation constant Kap of complexes between the compound and channel can be calculated using the Cheng-Prusoff equation [50]:Kap = IC50/(1 + L/Kd)(4) where L is the concentration of A-HgTx in the competitive binding experiment.
In A-HgTx binding experiments, cells were incubated with A-HgTx (0.15–4 nM) for 30 min (37 °C, 5% CO2) in the complete medium. In competitive binding experiments, cells were incubated with A-HgTx (2 nM) and selected pore blocker at variable concentrations (0.5–100 nM for recombinant peptides and 1–20 mM for TEA) for 30 min (37 °C, 5% CO2) in the complete medium.
Experiments with HEK293 cells were performed with a laser scanning confocal microscope Leica-SP2 (Leica Microsystems GmbH, Wetzlar, Germany). The water-immersion 63×/1.2 NA HCX PL APO objective was used.
Fluorescence of mKate2-fused hKv1.3 was excited at the 561 nm wavelength and recorded in the 650–700 nm range. Fluorescence of A-HgTx was excited at the 488 nm wavelength and recorded in the 495–535 nm range. Distributions of A-HgTx and mKate2 fluorescence in cells were imaged using sequential scanning to avoid interference of intrinsic cellular fluorescence excited at the 488 nm with the mKate2 fluorescence.
Each experimental point in the curves describing interaction A-HgTx with mKate2-tagged Kv1.3 channels is an average over 15–25 treated images of cells. […]

## CC[N+](CC)(CC)CC [TEA, tetraethylammonium]
[1]
  pKd: 2.00
[2]; Cheng-Prusoff from IC50, 2 nM A-HgTx, blockers 0.5–100 nM (peptides) or 1–20 mM (TEA), 30 min, 37 °C, 5% CO2, complete medium, HEK293 cells, mean ± SEM, three independent measurements, read-out: Kap, apparent dissociation constant of complexes formed by K-ΔKv1.3 with pore blocker
  pKd: 2.70
[2]; FCBA, HEK293 cells, result in words
  active concentration range (FCBA): active in the millimolar concentration range
[2]; living HEK293 cells, 2 nM A-HgTx, result in words
  displacement of A-HgTx from the complexes with K-ΔKv1.3: A-HgTx is also displaced
